Here are results for 2 molecules from patent publication US20080166432A1, “Biotherapeutics for Mitigation of Health Disorders from Terminalia Arjuna” (Avestha Gengraine Technologies Pvt. Ltd., priority 2003, published 2008).

Each structure is given as a SMILES string.

For experiment [1], the system named is Bordetella bronchiseptica ATCC-4617. Put plainly: Antibacterial assay, agar streak method. The experiment is classed as cell-based. Also noted: key: +++: abundant growth; ++: growth; +: less growth; −: no growth. To be noted: B. bronchiseptica. From the text:
(§1) Testing of anti-microbial potential was done against following bacterial strains (Gram negative: Escherichia coli ATCC-10536, Pseudomonas aeruginosa ATCC-9027, Klebsiella pneumoniea ATCC-10031, Bordetella bronchiseptica ATCC-4617; Gram Positive: Staphylococcus aureus ATCC-29737, Streptococcus fecalis ATCC-8043, Micrococcus luteus ATCC-9341, Bacillus subtilis ATCC-6633, Bacillus cereus ATCC-11778, Bacillus pumilus ATCC-14884, Staphylococcus epidermidis ATCC-6358) were selected from the microorganisms given in United states Pharmacopoeia (2000), British Pharmacopoeia (1993) and Indian Pharmacopoeia (1996) for anti-microbial assays.
(§2) A stock of 100 mg/ml of Ethyl acetate, Acetone, Ethanol, Methanol and Water successive extract from Terminalia arjuna bark and direct ethanol and successive water extracts from Terminalia arjuna fruit was dissolved in DMSO. To determine the antibacterial potential extracts at a concentration of 5 mg/ml and 1 mg/ml were added to 30 ml of luke warm Luria Bertaini agar medium. After the medium was solidified, overnight grown 11 bacterial strains mentioned were taken in loop and streaked on the medium. The plates were incubated at 37° C. for 24 hrs after which the bacterial growth was monitored. Suitable controls were maintained with the extracts and the microorganisms. Luria Bertaini agar medium with and without 1.5% DMSO were used as negative control set, Ciprofloxacin (2 μg/ml) served as positive control.

Experiment [2] relates to Staphylococcus aureus ATCC-29737. Nature of the experiment: Antibacterial assay, agar streak method. The experiment is classed as cell-based. Also noted: key: +++: abundant growth; ++: growth; +: less growth; −: no growth. To be noted: S. aureus.
Source text: as §1, §2

Experiment [3] deals with Micrococcus luteus ATCC-9341. Nature of the experiment: Antibacterial assay, agar streak method. The experiment is classed as cell-based. Also noted: key: +++: abundant growth; ++: growth; +: less growth; −: no growth. To be noted: M. luteus.
Source text: as §1, §2

The subject of experiment [4] is Bacillus subtilis ATCC-6633. Nature of the experiment: Antibacterial assay, agar streak method. To be noted: B. subtilis; LB + Ciprofloxacin 2 μg/ml. Also noted: key: +++: abundant growth; ++: growth; +: less growth; −: no growth. It is filed as cell-based.
Source text: as §1, §2

Experiment [5] deals with Pseudomonas aeruginosa ATCC-9027. Nature of the experiment: Antibacterial assay, agar streak method. It is filed as cell-based. Also noted: key: +++: abundant growth; ++: growth; +: less growth; −: no growth. To be noted: P. aeruginosa.
Source text: as §1, §2

In experiment [6] the test system is Escherichia coli ATCC-10536. Put plainly: Antibacterial assay, agar streak method. It is filed as cell-based. Also noted: key: +++: abundant growth; ++: growth; +: less growth; −: no growth. To be noted: E. coli.
Source text: as §1, §2

Experiment [7] relates to Streptococcus fecalis ATCC-8043. Nature of the experiment: Antibacterial assay, agar streak method. The experiment is classed as cell-based. On the set-up: key: +++: abundant growth; ++: growth; +: less growth; −: no growth. To be noted: S. fecalis.
Source text: as §1, §2

Experiment [8] relates to Klebsiella pneumoniea ATCC-10031. Put plainly: Antibacterial assay, agar streak method. It is filed as cell-based. On the set-up: key: +++: abundant growth; ++: growth; +: less growth; −: no growth. To be noted: K. pneumoniea.
Source text: as §1, §2

The subject of experiment [9] is Bacillus cereus ATCC-11778. Nature of the experiment: Antibacterial assay, agar streak method. On the set-up: key: +++: abundant growth; ++: growth; +: less growth; −: no growth. To be noted: B. cereus. It is filed as cell-based.
Source text: as §1, §2

The test system of experiment [10] is Bacillus pumilus ATCC-14884. Put plainly: Antibacterial assay, agar streak method. It is filed as cell-based. On the set-up: key: +++: abundant growth; ++: growth; +: less growth; −: no growth. To be noted: B. pumilus.
Source text: as §1, §2

Experiment [11] relates to Staphylococcus epidermidis ATCC-6358. Put plainly: Antibacterial assay, agar streak method. It is filed as cell-based. Also noted: key: +++: abundant growth; ++: growth; +: less growth; −: no growth. To be noted: S. epidermidis.
Source text: as §1, §2

Another experiment has as its system endothelial cells. To be noted: ascorbate pretreatment; measured as citrulline formation and cGMP accumulation; cited from earlier work.
Experiment [12] in a line: DPPH scavenging effect (antioxidant assay). It is filed as physicochemical. To be noted: T. arjuna extracts from different plant parts. The source says:
This method is based on the reduction of DPPH, a stable free radical. Due to the odd electron of DPPH, it gives a strong absorption maximum at 517 nm by visible spectroscopy (purple color). As the odd electron of the radical becomes paired off in the presence of hydrogen donor, that is, a free-radical scavenging antioxidant, the absorption strength is decreased, and the resulting de-coloration is stoichiometric with respect to the number of electrons captured. This reaction has widely been used to evaluate the anti-oxidative activity of food and plant extracts.
Reactions were performed in 1.25 ml of methanol containing 0.5 mM freshly made DPPH and various amounts of the extract. Reaction mixtures were incubated at 37° C. for 30 min, and the absorbance at 517 nm was measured. This assay was done in triplicate.
Oxidant (DPPH) inhibitory activity (%)={(A517Control−A517 Sample)/A517Control}×100
IC50 is defined as the amount of extract required for 50% inhibition in the levels of free radical. Table 25 gives the IC50 values of Terminalia arjuna bark and fruit extracts.
For orientation: Loss of DPPH colour is used to gauge radical scavenging.

Where [13] appears, read: LB + Ciprofloxacin 2 μg/ml (Table 27).

As for `O=C(O)c1cn(C2CC2)c2cc(N3CCNCC3)c(F)cc2c1=O` [Ciprofloxacin], the bacterial growth entry in experiment [1] (LB + Ciprofloxacin 2 μg/ml), in experiment [1] (setting [13]), in [2] (LB + Ciprofloxacin 2 μg/ml), in experiment [2] (setting [13]), in [3] (LB + Ciprofloxacin 2 μg/ml) and in [3] (setting [13]) was “−” each time. The bacterial growth entry in experiment [4], in experiment [5] (LB + Ciprofloxacin 2 μg/ml), in experiment [5] (setting [13]), in experiment [6] (LB + Ciprofloxacin 2 μg/ml), in experiment [6] (setting [13]) and in [7] (LB + Ciprofloxacin 2 μg/ml) was “−” each time. Besides, the bacterial growth entry in experiment [7] (setting [13]), in [8] (LB + Ciprofloxacin 2 μg/ml), in experiment [8] (setting [13]), in experiment [9] (LB + Ciprofloxacin 2 μg/ml), in experiment [9] (setting [13]) and in experiment [10] (LB + Ciprofloxacin 2 μg/ml) was “−” in each case. In addition, the bacterial growth entry in experiment [10] (setting [13]), in [11] (LB + Ciprofloxacin 2 μg/ml) and in experiment [11] (setting [13]) was “−” throughout.

Regarding `O=C1O[C@H]([C@@H](O)CO)C(O)=C1O` [Ascorbate, ascorbic acid], in the experiment with endothelial cells, the “increase of the cellular production of NO” value is given as 3 fold. In [12], the “IC50 values of antioxidation potential” value came to 26 µg/mL.
